Data: patent publication US20250367145A1, “COMPOUNDS FOR USE IN THE TREATMENT OF KIDNEY DISEASES” (Universitätsmedizin Greifswald, priority 2022, published 2025)

Legend:
[1] = system: Tg(nphs2:GAL4-VP16); Tg(UAS:Eco.nfsB-mCherry) zebrafish larvae; assay: Edema progression in zebrafish larvae after MTZ podocyte injury (FSGS model), edema types 1-4; format: in vivo; conditions: for edema progression/formation at 10 μM: 10 μM compound in conjunction with MTZ, compared to MTZ group; for edema progression/formation at 10 μM / most effective concentration for prevention of proteinuric edema: until 8 dpf; for lethality at 100 μM: 100 μM compound in conjunction with MTZ (2 days); for effect in terms of proteinuric edema progression/formation: injury model, in conjunction with MTZ; for progression of podocyte injury induced in the disease model: zebrafish larvae model of FSGS, effects concentration-dependent; for most effective concentration for prevention of proteinuric edema: different concentrations in conjunction with MTZ
Method: The results are depicted in FIG. 4. A treatment for 48 hours from 4 to 6 dpf with MTZ induces edema formation of four different severities in this strain, scaling from type 1=no edema to type 4=severe edema (FIG. 3). Edema severity of larvae treated with DMSO, MTZ and MTZ plus 1 μM, 10 μM or 100 μM belinostat was categorized at 6, 7 and 8 dpf (FIG. 4). […] Co-treatment with MTZ and 100 μM belinostat induced edema formation in 15% of larvae with 0% type 4 edema in contrast to 60% edema with 31% type 4 edema in the MTZ group. At 7 dpf, progression of edema formation was decelerated in all three groups for all three types of edema that received belinostat, again in a dose-dependent manner. MTZ caused type 4 edema in 56.4% of larvae at 7 dpf, contrary to 1.9% edema in the MTZ+100 μM belinostat group. […] 83.6% of larvae treated with MTZ developed edema with 58.2% showing type 4 edema. […] 10 μM belinostat+MTZ induced edema 80% of larvae with 34.5% type 4 edema. Co-treatment of MTZ with 100 μM belinostat caused edema formation in 64.2% of larvae with 28.3% type 4 edema (FIG. 4).
FIG. 3 depicts the different degrees of podocyte injury progression: 1: no edema, 2: slight edema, 3: moderate edema, 4: severe edema. Black arrowheads show periocular and blank arrowheads depict abdominal edema. Scale bar: 500 μm.
FIG. 4 depicts the results of Example 3, measuring the edema progression in larvae that were treated with different concentrations of belinostat in conjunction with MTZ. Edema progression was measured according to the categories of in larvae until 8 dpf following MTZ injury with various concentration of belinostat (DMSO n=52, MTZ n=55, MTZ+1 μM belinostat n=52, MTZ+10 μM belinostat n=55, MTZ+100 μM belinostat n=53).

[2] = system: podocytes / glomerular filtration barrier of MTZ-injured zebrafish larvae; assay: Zebrafish larvae podocyte injury screening: vascular eGFP (proteinuria) and glomerular mCherry (podocyte depletion) fluorescence ratios; conditions: for podocyte protection in drug library screen: co-treatment 80 μM MTZ + 100 μM compound, 24 h from 4 to 5 dpf, 12 larvae per compound
Method: Groups of 12 larvae from one clutch were distributed into a 24-well plate (#662160 Greiner, Frickenhausen, Germany). For each clutch, 12 larvae were treated with 0.2% DMSO in E3 as negative control and 12 larvae were treated with 80 μM Metronidazole (MTZ) in DMSO in E3 as injury control and comparison group. The Fraunhofer ScreeningPort IME provided an epigenetic drug library which was used for this screening (Table 1). […] The treatment volume was 400 μl for each well with 12 larvae, the wells were sealed with Adhesive Clear PCR Seal (#600208, Biozym Scientific GMBH, Hessisch-Oldendorf) in order to prevent evaporation and plates were incubated at 28.5° C., wrapped in aluminum foil to prevent effects of light. After 24 hours, compounds were washed out in three changes of 0.5×E3.
After washout at 5 dpf, E3 in the 12-well plate was replaced with E3 containing 0.4 mg/ml tricaine. Larvae were then individually transferred into wells of a 96-well plate (#644101, Greiner) which was prepared with custom agarose molds. For the molds, 45 μl of 0.7% boiling hot agarose (Biozym LE agarose) were transferred with a multichannel pipette into each well. After 3 min cooldown, a custom 3D printed orientation tool (Wittbrodt, Jonas N., Urban Liebel, and Jochen Gehrig. “Generation of orientation tools for automated zebrafish screening assays using desktop 3D printing.” BMC biotechnology 14.1 (2014): 1-6) was inserted into the agarose which produced cavities for orientation. Each larva was transferred with 100 μl tricaine containing E3 into the single wells of the 96-well plate (Row A was always 12×DMSO, Row B was always 12×MTZ, Row C-H were compounds+MTZ) and was then oriented laterally in the molds with a short piece of fishing line glued to a bend injection needle under the stereomicroscope manually with special attention to a flat caudal region.
Image acquisition for the screening was performed with an Imaging Machine ([…] Imaging GmbH, Heidelberg, Germany). […] Overview images of each laterally oriented larva were obtained with a 2× objective (40% LED intensity, 30 ms integration). For each larva, a region of interest (ROI) at the tail region caudal of the cloaca was selected with the Acquifer PlateViewer (V1.7.1, […]) for the 10× objective in order to image the blood flow and vasculature. After creating custom modificated imaging scripts via FIJI (Schindelin, Johannes, et al. “Fiji: an open-source platform for biological-image analysis.” Nature methods 9.7 (2012): 676-682), 10 consecutive brightfield frames at a framerate of 33 Hz were acquired (10× objective, 100% LED intensity, 30 ms integration) followed by one frame at 470 nm (10× objective, 50% LED intensity, 50 ms integration). […] The focal plane for both acquisitions was detected with a built-in two-step software autofocus (10× objective, 2×2 binning, 10% LED intensity, 10 ms integration, first step: 31 slices with 50 μm distance, second step: 10 slices with 10 μm slice distance, brightfield for the caudal vasculature, 555 nm for glomerular mCherry).
Following image acquisition, tricaine-containing E3 was washed out two times of each well and replaced by 150 μl E3. […] In this way, two values for the vascular eGFP fluorescence and two values for the glomerular mCherry fluorescence were obtained for each individual larva.

[3] = system: wildtype (AB/TU strain) zebrafish larvae; assay: Toxicity of belinostat treatment on wildtype zebrafish larvae; format: in vivo; conditions: 250 μM belinostat, treated for 48 hours, at day 8
Method: Larvae were treated for 48 hours and edema as well as malformations were assessed until 8 dpf.

Mice (C57BL/6) = assay: NTS (nephrotoxic serum) induced glomerular injury in mice, plasma creatinine; format: in vivo, mouse; conditions: NTS with low dose belinostat (25 mg/kg) compared to NTS injury group
Method: Mice (C57BL/6) were treated with PBS (healthy control), NTS (nephrotoxic serum, injury control), NTS with low dose belinostat (25 mg/kg) and NTS with high dose belinostat (50 mg/kg).

[4] = 10 μM compound + 80 μM MTZ vs MTZ alone

CC(C)[C@H](C(=O)Nc1ccc(C(=O)NO)cc1)c1ccccc1 [AR-42, N-hydroxy-4-[[(2S)-3-methyl-2-phenylbutanoyl]amino]benzamide]
edema progression/formation at 10 μM [1]: able to prevent proteinuric edema
lethality at 100 μM [1]: lethal
effect in terms of proteinuric edema progression/formation [1]: protective effect
progression of podocyte injury induced in the disease model [1]: significantly slowed the progression of podocyte injury

O=C(/C=C/c1cccc(S(=O)(=O)Nc2ccccc2)c1)NO [belinostat, (2E)-N-hydroxy-3-[3-(phenylsulfamoyl)phenyl]prop-2-enamide]
loss of podocyte mCherry fluorescence (glomerular fluorescence ratio 6 dpf/5 dpf) [2, 4]: significantly reduced loss of podocyte mCherry fluorescence
renal leakage of 78 kDa VDP-eGFP through the glomerular filtration barrier (vascular eGFP fluorescence ratio 6 dpf/5 dpf) [2, 4]: could prevent the renal leakage
harmful effect on the glomerular filtration barrier or podocyte vitality ([2]; 10 μM compound alone, without MTZ injury): no harmful effect
podocyte protection in drug library screen [2]: podocyte-protective
larvae with type 4 edema ([1]; MTZ + 1 μM belinostat, 8 dpf (MTZ group 58.2%)): 44.2%
larvae with edema formation ([1]; MTZ + 1 μM belinostat, 8 dpf (MTZ group 83.6%)): 80.8%
larvae with type 4 edema ([1]; MTZ + 10 μM belinostat, 8 dpf (MTZ group 58.2%)): 34.5%
larvae with edema formation ([1]; MTZ + 10 μM belinostat, 8 dpf (MTZ group 83.6%)): 80%
larvae with type 4 edema ([1]; MTZ + 100 μM belinostat, 6 dpf (MTZ group 31%)): 0%
larvae with edema formation ([1]; MTZ + 100 μM belinostat, 6 dpf (MTZ group 60%)): 15%
larvae with edema (contrasted with type 4 edema of MTZ group) ([1]; MTZ + 100 μM belinostat, 7 dpf (MTZ group type 4 edema 56.4%)): 1.9%
larvae with type 4 edema ([1]; MTZ + 100 μM belinostat, 8 dpf (MTZ group 58.2%)): 28.3%
larvae with edema formation ([1]; MTZ + 100 μM belinostat, 8 dpf (MTZ group 83.6%)): 64.2%
progression of edema formation ([1]; MTZ + 1, 10 or 100 μM belinostat, 7 dpf, dose-dependent): decelerated
number of larvae with type 3 and 4 edema ([1]; MTZ + 1, 10 or 100 μM belinostat, after washout at 6 dpf, dose-dependent): reduced number of larvae with type 3 and 4 edema
edema progression with continuous treatment ([1]; MTZ from 4-6 dpf and continuously belinostat until 8 dpf, vs belinostat until day 6): ameliorated most
delay in edema formation ([1]; belinostat treatment groups, 8 dpf): stayed consistent
progression of podocyte injury induced in the disease model [1]: significantly slowed the progression of podocyte injury
larvae for which treatment is lethal [3]: 35%
plasma creatinine concentration (Mice (C57BL/6)): reduce plasma creatine concentrations significantly

O=C(/C=C/c1ccc(CN(CCO)CCc2c[nH]c3ccccc23)cc1)NO [Dacinostat, (E)-N-hydroxy-3-[4-[[2-hydroxyethyl-[2-(1H-indol-3-yl)ethyl]amino]methyl]phenyl]prop-2-enamide]
edema progression/formation at 10 μM [1]: successfully prevented edema formation
lethality at 100 μM [1]: lethal
effect in terms of proteinuric edema progression/formation [1]: protective effect
progression of podocyte injury induced in the disease model [1]: significantly slowed the progression of podocyte injury

C#Cc1cccc(Nc2ncnc3cc(OC)c(OCCCCCCC(=O)NO)cc23)c1 [CUDC-101, 7-[4-(3-ethynylanilino)-7-methoxyquinazolin-6-yl]oxy-N-hydroxyheptanamide]
most effective concentration for prevention of proteinuric edema [1]: 10 µM
effect in terms of proteinuric edema progression/formation [1]: protective effect
progression of podocyte injury induced in the disease model [1]: significantly slowed the progression of podocyte injury

O=C(/C=C/C#Cc1cccc(NS(=O)(=O)c2ccccc2)c1)NO [oxamflatin, 5-[3-(benzenesulfonamido)phenyl]-N-hydroxypent-2-en-4-ynamide]
podocyte protection in drug library screen [2]: podocyte-protective
most effective concentration for prevention of proteinuric edema [1]: 100 µM
progression of podocyte injury induced in the disease model [1]: significantly slowed the progression of podocyte injury

O=C(CCCCCN1C(=O)c2cccc3cccc(c23)C1=O)NO [Scriptaid, 6-(1,3-Dioxo-1H,3H-benzo[de]isoquinolin-2-yl)-N-hydroxyhexanamide]
edema progression/formation at 10 μM [1]: successfully prevented edema progression
lethality at 100 μM [1]: in the lethal range
effect in terms of proteinuric edema progression/formation [1]: protective effect
progression of podocyte injury induced in the disease model [1]: significantly slowed the progression of podocyte injury

O=C(CCCCCCC(=O)Nc1ccccc1)NO [Vorinostat, N′-hydroxy-N-phenyloctanediamide]
formation of moderate (type 3) edema ([1]; 100 μM compound in conjunction with MTZ, 6 dpf): able to prevent formation of moderate edema
effect in terms of proteinuric edema progression/formation [1]: protective effect
progression of podocyte injury induced in the disease model [1]: significantly slowed the progression of podocyte injury
